In test [1] the target is PDE 7 (phosphodiesterase VII) (Homo sapiens (Human), UniProt Q13946). Briefly: PDE 7 inhibiting effect (3H-cAMP hydrolysis, PDE 7 active fraction from MOLT-4 cells). In kind it is biochemical. The settings on record: PDE 7 fraction from MOLT-4 cells, 0.064 μM cAMP, 10 μM rolipram, 2 hours at 25° C.; read-out: PDE7 IC50. Here is the method: Methods for Evaluating the PDE 7 Inhibiting Effect
The PDE 7 (phosphodiesterase VII) inhibiting effect of the compounds of the present invention was performed by the following method, which was modified assay method described in Biochemical. Pharmacol. 48(6), 1219-1223 (1994). • (1) The active fraction of PDE 7 (phosphodiesterase VII) was obtained. That is, MOLT-4 (obtainable from ATCC as ATCC No. CRL-1582), which was cell line of human acute lymphoblastic lymphoma T cells, was incubated in RPMI1640 culture medium containing 10% fetal bovine serum to obtain 5×10^8 MOLT-4 cells. The cells were collected by centrifugation and suspended with 10 mL of buffer solution A [25 mM of tris-HCl, 5 mM of 2-mercaptoethanol, 2 mM of benzamidine, 2 mM of EDTA, 0.1 mM of 4-(2-aminoethyl)benzenesulfonyl hydrochloride; pH 7.5], then homogenized by Polytron® homogenizer. The homogenate were centrifuged under 25,000×G for 10 minutes at 4° C. The supernatant was separated and thus obtained supernatant was further centrifuged under 100,000×G for 60 minutes at 4° C., and then filtrated with 0.2 μm filter to obtain the soluble fraction. • (2) The obtained soluble fraction was filled in equilibrium HiTrap Q column (5 mL×2) with buffer solution A, and phosphodiesterase fractions were eluted by 300 mL of buffer solution A with linear gradient from 0 to 0.8 M NaCl concentration. 5 mL each of 60 eluents were collected, and each eluents were examined for cyclic AMP metabolic activities of phosphodiesterase. […] After the reaction, suspension of Sephadex®-QAE in 10 mM of HEPES-Na (pH 7.0) was added to the reaction mixture, and the mixture was left at rest for 5 minutes.

Test [2] addresses PDE 4 (phosphodiesterase IV). Description: PDE 4 inhibiting effect (3H-cAMP hydrolysis, PDE 4 active fraction from Balb/c mouse liver). It is filed as biochemical. The settings on record: PDE 4 fraction from Balb/c mice liver, 0.064 μM cAMP, 2 hours at 25° C.; read-out: PDE4 IC50. Here is the method: Methods for Evaluating the PDE 4 Inhibiting Effect
The PDE 4 (phosphodiesterase IV) inhibiting effect of the compounds of the present invention was performed by the following method, which was modified assay method described in Biochemical. […] That is, the livers obtained from three Balb/c mice (male, 12 weeks: obtainable from CLEA Japan, Inc.) were suspended with 30 mL of buffer solution B [20 mM of bis-tris, 5 mM of 2-mercaptoethanol, 2 mM of benzamidine, 2 mM of EDTA, 0.1 mM of 4-(2-aminoethyl)benzenesulfonyl hydrochloride, 50 mM of sodium acetate; pH 6.5], then homogenized by Polytron® homogenizer. The homogenate were centrifuged under 25,000×G for 10 minutes at 4° C. The supernatant was separated and thus obtained supernatant was further centrifuged under 100,000×G for 60 minutes at 4° C., and then filtrated with 0.2 μm filter to obtain the soluble fraction. • (2) The obtained soluble fraction was filled in equilibrium DEAE sepharose column (1×10 cm) with buffer solution B, and phosphodiesterase fractions were eluted by 120 mL of buffer solution B with linear gradient from 0.05 to 1M sodium acetate concentration. 5 mL each of 24 eluents were collected, and each eluents were examined for cyclic AMP metabolic activities of phosphodiesterase. […] After the reaction, suspension of Sephadex®-QAE in 10 mM of HEPES-Na (pH 7.0) was added to the reaction mixture, and the mixture was left at rest for 5 minutes.

Where a name gives a salt, the structure may show the parent alone.

Chain of PDE 7 (phosphodiesterase VII) (Q13946 whole entry): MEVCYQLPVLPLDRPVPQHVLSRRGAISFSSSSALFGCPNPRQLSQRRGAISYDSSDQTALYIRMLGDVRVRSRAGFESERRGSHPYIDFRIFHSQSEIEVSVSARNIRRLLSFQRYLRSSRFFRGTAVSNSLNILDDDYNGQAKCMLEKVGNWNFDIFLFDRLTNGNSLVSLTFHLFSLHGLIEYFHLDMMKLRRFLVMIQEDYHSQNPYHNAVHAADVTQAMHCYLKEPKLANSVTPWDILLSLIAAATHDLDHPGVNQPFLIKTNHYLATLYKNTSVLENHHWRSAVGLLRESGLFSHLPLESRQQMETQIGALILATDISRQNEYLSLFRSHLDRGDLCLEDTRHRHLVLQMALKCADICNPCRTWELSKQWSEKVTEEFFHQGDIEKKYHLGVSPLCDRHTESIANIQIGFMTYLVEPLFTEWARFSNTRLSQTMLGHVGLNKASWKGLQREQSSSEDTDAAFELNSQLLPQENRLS

What is called IC50 is the concentration that inhibits the measured activity by half. In the case of `Cc1nn(C2CCCCC2)c2sc(C(=O)Nc3ccc(S(=O)(=O)N4CCN(C)CC4)cc3)cc12` [Example 36, 1-Cyclohexyl-3-methy-N-{4-[(4-methyl-1-piperazinyl)sulfonyl]-phenyl}-1H-thieno[2,3-c]pyrazole-5-carboxamide], the IC50 came out at 40 nM in test [1] and 25000 nM in test [2].

On to `COCCNC(=O)c1ccc(NC(=O)c2cc3c(C)nn(C4CCCCC4)c3s2)cc1` [Example 37, 1-Cyclohexyl-N-(4-{[(2-methoxyethyl)amino]carbonyl}phenyl)-3-methyl-1H-thieno[2,3-c]pyrazole-5-carboxamide], for which the 50% inhibitory concentration (IC50) in test [1] came out at 28 nM; in test [2] it was 2000 nM.

On to `CC(=O)c1ccc(NC(=O)c2cc3c(C)nn(C4CCCCC4)c3s2)cc1` [Example 38, N-(4-Acetylphenyl)-1-cyclohexyl-3-methyl-1H-thieno[2,3-c]pyrazole-5-carboxamide], for which the IC50 worked out at 33 nM in test [1] and 5000 nM in test [2].

As to `Cc1nn(C2CCCCC2)c2sc(C(=O)Nc3ccc(C(=O)N(C)C)cc3)cc12` [Example 39, 1-Cyclohexyl-N-{4-[(dimethylamino)carbonyl]phenyl}-3-methyl-1H-thieno[2,3-c]pyrazole-5-carboxamide], the IC50 worked out at 14 nM in test [1] and 3500 nM in test [2].

Turning to `CCOC(=O)c1ccc(NC(=O)c2cc3c(C)nn(C4CCCCC4)c3s2)cc1` [Example 40, Ethyl 4-{[(1-cyclohexyl-3-methyl-1H-thieno[2,3-c]pyrazol-5-yl)-carbonyl]amino}benzoate], the half-maximal inhibitory concentration (IC50) in test [1] stood at 75 nM; in test [2], 15000 nM.

For the compound `Cc1nn(C2CCCCC2)c2sc(C(=O)Nc3ccc(C(=O)O)cc3)cc12` [Example 41, 4-{[(1-Cyclohexyl-methyl-1H-thieno[2,3-c]pyrazol-5-yl)carbonyl]-amino}benzoic acid], the results for the IC50 in test [1] and in test [2] were 50 nM and 12000 nM, respectively.

Consider `Cc1nn(C2CCCCC2)c2sc(C(=O)Nc3ccc(C(=O)NC(C)C)cc3)cc12` [Example 45, 1-Cyclohexyl-N-{4-[(isopropylamino)carbonyl]phenyl}-3-methyl-1H-thieno[2,3-c]pyrazole-5-carboxamide], for which the results for the half-inhibitory concentration (IC50) in test [1] and in test [2] were 50 nM and 12000 nM, respectively.

As to `Cc1nn(C2CCCCC2)c2sc(C(=O)Nc3ccc(C(=O)NCCO)cc3)cc12` [Example 46, 1-Cyclohexyl-N-(4-{[(2-hydroxyethyl)amino]carbonyl}phenyl)-3-methyl-1H-thieno[2,3-c]pyrazole-5-carboxamide], the results for the half-maximal inhibitory concentration (IC50) in test [1] and in test [2] were 30 nM and 2000 nM, respectively.

On to `CC(=O)Nc1ccc(NC(=O)c2cc3c(C)nn(C4CCCCC4)c3s2)cn1` [Example 47, N-[6-(Acetylamino)-3-pyridinyl]-1-cyclohexyl-3-methyl-1H-thieno[2,3-c]pyrazole-5-carboxamide], for which the IC50 came out at 32 nM in test [1] and 3500 nM in test [2].

In the case of `Cc1nn(C2CCCCC2)c2sc(C(=O)Nc3ccc(C(=O)NC(C)(C)C)cc3)cc12` [Example 51, N-{4-[(tert-Butylamino)carbonyl]phenyl}-1-cyclohexyl-3-methyl-1H-thieno[2,3-c]pyrazole-5-carboxamide], the IC50 in test [1] was determined as 75 nM; in test [2], 9500 nM.

Take `Cc1nn(C2CCCCC2)c2sc(C(=O)Nc3ccc(NC=O)cc3)cc12` [Example 53, 1-Cyclohexyl-N-[4-(formylamino)phenyl]-3-methyl-1H-thieno[2,3-c]pyrazole-5-carboxamide]: the values for the half-maximal inhibitory concentration (IC50) in test [1] and in test [2] were 55 nM and 3500 nM, respectively.

Take `Cc1nn(C2CCCCC2)c2sc(C(=O)Nc3ccc4c(c3)CCN4C(=O)C3CC3)cc12` [Example 58, 1-Cyclohexyl-N-[1-(cyclopropylcarbonyl)-2,3-dihydro-1H-indol-5-yl]-3-methyl-1H-thieno[2,3-c]pyrazole-5-carboxamide]: the 50% inhibitory concentration (IC50) in test [1] worked out at 36 nM; in test [2], 3600 nM.

With `Cc1nn(C2CCCCC2)c2sc(C(=O)Nc3ccc4c(c3)CCN4S(C)(=O)=O)cc12` [Example 59, 1-Cyclohexyl-3-methyl-N-[1-(methylsulfonyl)-2,3-dihydro-1H-indol-5-yl]-1H-thieno[2,3-c]pyrazole-5-carboxamide], the results for the IC50 in test [1] and in test [2] were 80 nM and 7000 nM, respectively.

As for `CC(=O)n1ccc2cc(NC(=O)c3cc4c(C)nn(C5CCCCC5)c4s3)ccc21` [Example 60, N-(1-Acetyl-1H-indol-5-yl)-1-cyclohexyl-3-methyl-1H-thieno[2,3-c]pyrazole-5-carboxamide], the half-inhibitory concentration (IC50) was 65 nM in test [1] and 6500 nM in test [2].

Turning to `CNC(=O)COc1ccc(NC(=O)c2cc3c(C)nn(C4CCCCC4)c3s2)cc1` [Example 67], the IC50 in test [1] was 23 nM; in test [2] it was 3500 nM.

Regarding `CNC(=O)Cc1ccc(NC(=O)c2cc3c(C)nn(C4CCCCC4)c3s2)cc1` [Example 70], the half-maximal inhibitory concentration (IC50) in test [1] worked out at 25 nM; in test [2] it was 4700 nM.

On to `Cc1nn(C2CCCCC2)c2sc(C(=O)Nc3ccc(N4CCNCC4)cc3)cc12` [Example 72, 1-Cyclohexyl-3-methyl-N-[4-(1-piperazinyl)phenyl]-1H-thieno[2,3-c]pyrazole-5-carboxamide HCl salt], for which the IC50 turned out to be 10 nM in test [1] and 1200 nM in test [2].

Turning to `CC(=O)N1CCN(c2ccc(NC(=O)c3cc4c(C)nn(C5CCCCC5)c4s3)cc2)CC1` [Example 73, N-[4-(4-Acetyl-1-piperazinyl)phenyl]-1-cyclohexyl-3-methyl-1H-thieno[2,3-c]pyrazole-5-carboxamide], the IC50 stood at 12 nM in test [1] and 1000 nM in test [2].

For `Cc1nn(C2CCCCC2)c2sc(C(=O)N[C@H]3CC[C@H](O)CC3)cc12` [Example 74, 1-Cyclohexyl-N-(trans-hydroxycyclohexyl)-3-methyl-1H-thieno[2,3-c]pyrazole-5-carboxamide], the IC50 was determined as 50 nM in test [1] and 7000 nM in test [2].

For the compound `Cc1nn(C2CCCCC2)c2sc(C(=O)Nc3ccc(OCC(=O)N4CCN(C)CC4)cc3)cc12` [Example 76, 1-Cyclohexyl-3-methyl-N-{4-[2-(4-methyl-1-piperazinyl)-2-oxoethexy]-phenyl}-1H-thieno[2,3-c]pyrazole-5-carboxamide], the IC50 was 20 nM in test [1] and 2000 nM in test [2].

With `Cc1nn(C2CCCCC2)c2sc(C(=O)Nc3ccc(OCC(=O)N(C)C)cc3)cc12` [Example 77, 1-Cyclohexyl-N-{4-[2-(dimethylamino)-2-oxoethoxy]phenyl}-3-methyl-1H-thieno[2,3-c]pyrazole-5-carboxamide], the IC50 was found to be 20 nM in test [1] and 2000 nM in test [2].

Consider `CC(=O)N[C@H]1CC[C@H](NC(=O)c2cc3c(C)nn(C4CCCCC4)c3s2)CC1` [Example 80, N-[trans-4-(Acetylamino)cyclohexyl]-1-cyclohexyl-3-methyl-1H-thieno[2,3-c]pyrazole-5-carboxamide], for which the concentration for half-maximal inhibition (IC50) in test [1] amounted to 60 nM; in test [2], 2500 nM.

As to `CC(=O)Nc1ccc(NC(=O)c2cc3c(C)nn(C4CCCCCC4)c3s2)cc1` [Example 94, N-[4-(Acetylamino)phenyl]-1-cycloheptyl-3-methyl-1H-thieno[2,3-c]pyrazole-5-carboxamide], the 50% inhibitory concentration (IC50) in test [1] was 58 nM; in test [2], above 30000 nM.

Turning to `Cc1nn(C2CCCCC2)c2sc(C(=O)Nc3ccc(N)cc3)cc12` [Example 99, N-(4-Aminophenyl)-1-cyclohexyl-3-methyl-1H-thieno[2,3-c]pyrazole-5-carboxamide], the IC50 in test [1] worked out at 99 nM; in test [2], 5000 nM.

`CC(=O)Nc1ccc(NC(=O)c2cc3c(C)nn(C4CCCCC4)c3s2)cc1` [Example 100, N-[4-(Acetylamino)phenyl]-1-cyclohexyl-3-methyl-1H-thieno[2,3-c]pyrazole-5-carboxamide]: the results for the concentration for half-maximal inhibition (IC50) in test [1] and in test [2] were 37 nM and above 30000 nM, respectively.

Values taken from patent US8901315B2, “Thienopyrazole derivative having PDE7 inhibitory activity” (Daiichi Sankyo Company, Limited, priority 2004, dated 2014).
